According to patent US11052100B2, “Stable nicotinamide riboside composition and preparation method thereof” (BONTAC BIO-ENGINEERING (SHENZHEN) CO., LTD, priority 2018, dated 2021):

Assay: Stability accelerated test (purity of nicotinamide riboside by HPLC)
Type: physicochemical
Conditions: 25° C.±2° C., relative humidity 60% ±10%, average of 3 samples
Description: The stability accelerated test was carried out on test subjects (nicotinamide riboside and the nicotinamide riboside composition prepared in Embodiment 1 to Embodiment 4 of the present invention) in accordance with the provisions of the Guidelines for Drug Stability Test in the Chinese Pharmacopoeia 2015. The test method was: taking 3 samples from each test subject in an environment with a temperature of 25° C.±2° C. and a relative humidity of 60% ±10%, taking samples once at the end of the 0th month, 1st month, 2nd month, 3rd month, and 6th month during the test period, detecting the purity of nicotinamide riboside by HPLC, and calculating an average value of 3 parts. In the table, 1, 2, 3 and 4 in the first column represent Embodiment 1, Embodiment 2, Embodiment 3 and Embodiment 4, respectively, NR represents nicotinamide riboside, KGM represents konjac glucomannan, and RA represents rebaudioside A.

## NC(=O)c1ccc[n+]([C@@H]2O[C@H](CO)[C@@H](O)[C@H]2O)c1 [NR, Nicotinamide riboside]
End of 0th month
  purity of nicotinamide riboside by HPLC, 0th month: 99.6%
End of 1st month
  purity of nicotinamide riboside by HPLC, 1st month: 10.6%
End of 2nd month
  purity of nicotinamide riboside by HPLC, 2nd month: 5.1%
End of 3rd month
  purity of nicotinamide riboside by HPLC, 3rd month: 3.4%
End of 6th month
  purity of nicotinamide riboside by HPLC, 6th month: 3.2%
